Laboratory results taken from patent publication US10786518B2, “Compositions and methods of treating HIV” (priority 2017, dated 2020).
Values joined by “and” are separate entries in the source; they are usually repeats but may differ in a detail not shown here. Identical values can stand only once. Counter-ions that a name gives are not always drawn. Like-named read-outs stand apart in the source and are kept apart here. Marks after values point to notes of the source that are not given here.

Columns and labels:
[1] = Bioequivalence study: plasma pharmacokinetics; conditions: single oral dose D/C/F/TAF 800/150/200/10 mg (test), fed, standardized regular breakfast
clinical [2] = conditions: human
clinical [3] = conditions: human, po
[4] = Food-effect bioavailability study: plasma pharmacokinetics; conditions: for AUCinf geometric mean ratio (90% CI), fasted (test) vs fed (reference) / AUClast geometric mean ratio (90% CI), fasted (test) vs fed (reference) / Cmax geometric mean ratio (90% CI), fasted (test) vs fed (reference) / t1/2term, mean (SD) / AUCinf, mean (SD) / AUClast, mean (SD) / Cmax, mean (SD): single oral dose D/C/F/TAF 800/150/200/10 mg;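 for all read-outs here: volunteers randomized to two single-dose treatment sessions separated by a washout of at least 7 days, dosing preceded by an overnight fast of at least 10 h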
HIV-1 = conditions: n = 102 newly diagnosed treatment-naive patients
[5] = human, in vivo
[6] = human, in vivo; remark: listed apart in the source
[7] = cited from earlier work; for Mean systemic tenofovir exposure: TAF group versus TDF group of the Phase II study
[8] = administered as D/C/F/TAF, fed = standardized high-fat breakfast
[9] = fed, standardized high-fat breakfast (reference)
[10] = subset of 32 treatment-naive HIV-1-infected adults

Compound | t1/2term, mean [1] | AUCinf lower in fasted compared with fed conditions [4, 8] | AUCinf geometric mean ratio (90% CI), fasted (test) vs fed (reference) [4] | AUClast geometric mean ratio (90% CI), fasted (test) vs fed (reference) [4] | Cmax geometric mean ratio (90% CI), fasted (test) vs fed (reference) [4] | t1/2term, mean (SD) ([4]; fasted (test)) | AUCinf, mean (SD) [4, 9] | Cmax, mean (SD) [4, 9] | t1/2term, mean (SD) [4, 9] | Genotypic susceptibility at screening/baseline, patients (HIV-1) | AUC(0-inf) (clinical [2]; in vivo) | Cmax (clinical [2]; in vivo) | AUC(0-t) (clinical [2]; in vivo) | Mean systemic tenofovir exposure [7] | other results
CC(C)c1nc(CN(C)C(=O)N[C@@H](CCN2CCOCC2)C(=O)N[C@H](CC[C@H](Cc2ccccc2)NC(=O)OCc2cncs2)Cc2ccccc2)cs1 [COBI, cobicistat] | 3.7 h | 16% | 84.39^k (68.52-103.95)^ % | 70.90 (51.13-98.30) % | 76.96 (55.70-106.33) % | 4.1 (0.9) hours | 6258 (2268) ng · h/mL | 711 (164) ng/mL | 3.9 (0.6) hours |  |  |  |  |  | AUC(0-inf) (clinical [2]; plasma, oral): 6870 ng·h/mL; AUC(0-t) (clinical [2]; plasma, oral): 6760 ng·h/mL; Cmax (clinical [2]; plasma, oral): 881 ng/mL; Tmax (clinical [2]; plasma, oral): 4 h; Tmax (clinical [3]; plasma): 3 h; AUClast lower in fasted compared with fed conditions [4, 8]: 29%; Cmax lower in fasted compared with fed conditions [4, 8]: 23%; AUClast, mean (SD) [4, 9]: 6168 (2260) ng · h/mL
CC(C)CN(C[C@@H](O)[C@H](Cc1ccccc1)NC(=O)O[C@H]1CO[C@H]2OCC[C@H]21)S(=O)(=O)c1ccc(N)cc1 [DRV, darunavir] |  |  |  |  |  |  |  |  |  | (100) % | 85200 ng·h/mL | 6620 ng/mL |  |  | 
Nc1nc(=O)n([C@@H]2CS[C@H](CO)O2)cc1F [FTC, emtricitabine] |  |  |  |  |  |  |  |  |  | (98) % | 11900 ng·h/mL | 2050 ng/mL | 11700 ng·h/mL |  | AUCinf geometric mean ratio, test vs reference [5]: 100.13%; AUClast geometric mean ratio, test vs reference [5]: 100.04%; Cmax geometric mean ratio, test vs reference [5]: 99.32%; t1/2term, mean [5]: 17.0 h; t1/2term, mean ([5]; po): 16.5 h; Cmax higher in fasted compared with fed conditions [6]: 26%; AUClast geometric mean ratio (90% CI), fasted (test) vs fed (reference) ([6]; po): 100.12 (96.29-104.10) %
CC(C)OC(=O)[C@H](C)N[P@](=O)(CO[C@H](C)Cn1cnc2c(N)ncnc21)Oc1ccccc1 [TAF, tenofovir alafenamide] | 0.3 h | 20% | 80.38^l (73.04-88.45)^ % | 89.54 (81.20-98.72) % | 182.29 (140.50-236.50) % | 0.3 (0.2) hours | 125 (57.3) ng · h/mL | 107 (65.2) ng/mL | 0.5 hours and 0.5 (0.1) hours |  | 141 ng·h/mL | 120 ng/mL | 132 ng·h/mL | 339 ng·h/mL | Lower mean systemic tenofovir exposure than in the TDF group ([7]; Phase II study): greater than 90%; Mean plasma exposure (AUClast) [7, 10]: 130.5 ng·h/mL; Median plasma half-life [7, 10]: 0.45 h; Tmax (clinical [2]; in vivo): 1.01 h; Tmax (clinical [3]; in vivo): 0.5 h; AUClast, fasted versus fed conditions (90% CI of the GMR within 80% to […]) ([4]; administered as D/C/F/TAF): comparable under both conditions; Cmax higher in fasted compared with fed conditions [4, 8]: 82%; AUClast, mean (SD) ([4]; fasted (test)): 106 (44.7) ng · h/mL
CC(C)OC(=O)OCOP(=O)(CO[C@H](C)Cn1cnc2c(N)ncnc21)OCOC(=O)OC(C)C [TDF, tenofovir disoproxil fumarate] |  |  |  |  |  |  |  |  |  | (100) % |  |  |  | 3737 ng·h/mL | 
